Data set [1] has as its system Hippocampus. Kind of data set: Biodistribution in BALB/c mouse hippocampus at 7 to 8 KBq, iv after 5 mins. The data set is classed as ADME, organism-based. Conditions: in vivo.
Data set [2] deals with Medulla. Kind of data set: Biodistribution in BALB/c mouse medulla at 7 to 8 KBq, iv after 60 mins. The data set is classed as ADME, organism-based, Medulla of organ. The note with it: in vivo, 1 h.
Data set [3] has as its system Heart. As to the kind of experiment: Biodistribution in BALB/c mouse heart at 7 to 8 KBq, iv after 5 mins. The data set is classed as ADME, organism-based. The note with it: in vivo.
Data set [4] has as its system Cerebellum. Kind of data set: Biodistribution in BALB/c mouse cerebellum at 7 to 8 KBq, iv after 60 mins. The data set is classed as ADME, organism-based. Conditions: in vivo, 1 h.
Data set [5] deals with Medulla. Kind of data set: Biodistribution in BALB/c mouse medulla at 7 to 8 KBq, iv after 5 mins. The data set is classed as ADME, organism-based, Medulla of organ. The note with it: in vivo.
In data set [6] the test system is Heart. Kind of data set: Biodistribution in BALB/c mouse heart at 7 to 8 KBq, iv after 60 mins. The data set is classed as ADME, organism-based. Conditions: in vivo, 1 h.
Data set [7] deals with Mus musculus. Kind of data set: Biodistribution in BALB/c mouse upper body at 7 to 8 KBq, iv after 15 mins. Conditions: in vivo, 0.25 h. The data set is classed as ADME, organism-based.
Another data set relates to Liver. Kind of data set: Biodistribution in BALB/c mouse liver at 7 to 8 KBq, iv after 120 mins. The data set is classed as ADME, organism-based. Conditions: in vivo, 2 h.
The subject of data set [8] is Striatum. As to the kind of experiment: Biodistribution in BALB/c mouse striatum at 7 to 8 KBq, iv after 120 mins. The data set is classed as ADME, organism-based. Conditions: in vivo, 2 h.
Data set [9] has as its system Intestine. Kind of data set: Biodistribution in BALB/c mouse intestine at 7 to 8 KBq, iv after 15 mins. The data set is classed as ADME, organism-based. The note with it: in vivo, 0.25 h.
In data set [10] the test system is Hippocampus. As to the kind of experiment: Biodistribution in BALB/c mouse hippocampus at 7 to 8 KBq, iv after 120 mins. The data set is classed as ADME, organism-based. Conditions: in vivo, 2 h.
In data set [11] the test system is Mus musculus. As to the kind of experiment: Biodistribution in BALB/c mouse lower body at 7 to 8 KBq, iv after 120 mins. The data set is classed as ADME, organism-based. Conditions: in vivo, 2 h.
A further data set concerns Kidney. Kind of data set: Biodistribution in BALB/c mouse kidney at 7 to 8 KBq, iv after 5 mins. The data set is classed as ADME, organism-based. Conditions: in vivo.
In data set [12] the test system is Intestine. As to the kind of experiment: Biodistribution in BALB/c mouse intestine at 7 to 8 KBq, iv after 120 mins. The data set is classed as ADME, organism-based. The note with it: in vivo, 2 h.
A further data set deals with Spleen. As to the kind of experiment: Biodistribution in BALB/c mouse spleen at 7 to 8 KBq, iv after 60 mins. The data set is classed as ADME, organism-based. Conditions: in vivo, 1 h.
In another data set the test system is Thalamus. As to the kind of experiment: Biodistribution in BALB/c mouse thalamus at 7 to 8 KBq, iv after 15 mins. The data set is classed as ADME, organism-based. The note with it: in vivo, 0.25 h.
The test system of the next data set is Cortex. Kind of data set: Biodistribution in BALB/c mouse cortex at 7 to 8 KBq, iv after 15 mins. The data set is classed as ADME, organism-based. The note with it: in vivo, 0.25 h.
In data set [13] the test system is Cerebellum. Kind of data set: Biodistribution in BALB/c mouse cerebellum at 7 to 8 KBq, iv after 5 mins. The data set is classed as ADME, organism-based. Conditions: in vivo.
Data set [14] concerns Striatum. Kind of data set: Biodistribution in BALB/c mouse striatum at 7 to 8 KBq, iv after 15 mins. The data set is classed as ADME, organism-based. Conditions: in vivo, 0.25 h.
The subject of a further data set is Stomach. As to the kind of experiment: Biodistribution in BALB/c mouse stomach at 7 to 8 KBq, iv after 120 mins. The data set is classed as ADME, organism-based. The note with it: in vivo, 2 h.

As to `CN1CCN(C2=Nc3cc([125I])ccc3Nc3ccccc32)CC1` [[125I]I-OZAPINE], the Drug uptake is listed as 7.07 %ID in the data set with Hippocampus [1]; 1.2 %ID with Medulla [2]; 0.6 %ID in the data set on Heart [3]; 0.94 %ID in the data set with Cerebellum [4]; 6.78 %ID in the data set with Medulla [5]; 0.13 %ID in the data set on Heart [6]. The Drug uptake in the data set on Mus musculus [7] is given as 17.41 %ID; with Liver, 9.8 %ID; in the data set on Striatum [8] it was 0.2 %ID; with Intestine [9], 17.73 %ID; in the data set on Hippocampus [10] it was 0.27 %ID; in the data set with Mus musculus [11], 4.97 %ID. The Drug uptake with Kidney stood at 5.42 %ID; in the data set with Intestine [12], 34.13 %ID; with Spleen, 0.13 %ID; in the data set with Thalamus it was 6.15 %ID; in the data set on Cortex it was 6.65 %ID; in the data set with Cerebellum [13] it was 6.16 %ID. The Drug uptake in the data set with Striatum [14] came to 6.76 %ID; with Stomach it was 4.61 %ID.

Source of the values: ChEMBL document CHEMBL1139986, “Synthesis and biodistribution of 8-iodo-11-(4-methylpiperazino)-5H-dibenzo[b,e][1,4]-diazepine: Iozapine” (Bioorg Med Chem Lett, 2007).
